Results published in ChEMBL document CHEMBL5543109, “Novel β-Hairpin Antimicrobial Peptide Containing the β-Turn Sequence of -NG- and the Tryptophan Zippers Facilitate Self-Assembly into Nanofibers, Exhibiting Excellent Antimicrobial Performance” (J Med Chem, 2024).
Values after ≈ are worked out from the molar mass of the structure shown. Active and inactive are the calls of the source. The rule behind the calls is not given here.

Legend:
[1] = test system: Klebsiella pneumoniae; test: Bactericidal activity against Klebsiella pneumoniae ATCC 700603 incubated for 18 hrs by broth microdilution method; format: functional
[2] = test system: Escherichia coli; test: Bactericidal activity against Escherichia coli ATCC 25922 incubated for 18 hrs by broth microdilution method; format: functional
[3] = test system: Pseudomonas aeruginosa; test: Bactericidal activity against Pseudomonas aeruginosa ATCC 27853 incubated for 18 hrs by broth microdilution method; format: functional
[4] = Self-assembly property of compound in water assessed as beta-sheet formation by measuring particle size at 50 uM by […]; format: physicochemical; settings: buffer
[5] = Self-assembly property of compound in PBS assessed as beta-sheet protofibrils formation at 128 uM incubated for 30 mins by SEM analysis; format: physicochemical; settings: buffer, 0.5 h
[6] = test system: Staphylococcus aureus; test: Antibacterial activity against Staphylococcus aureus at 2 times MIC preincubated for 1 hr with chymotrypsin followed by enzyme inactivation and bacterial addition and measured after 18 hrs; format: functional; settings: time 19 hrs
[7] = Stability in mouse serum assessed as half-life measured upto 48 hrs by RP-HPLC analysis; format: ADME, cell-free
[8] = test system: Pseudomonas aeruginosa; test: Antibacterial activity against Pseudomonas aeruginosa incubated for 18 hrs in presence of KCl by broth microdilution method; format: functional, organism-based
[9] = test system: Pseudomonas aeruginosa; test: Antibacterial activity against Pseudomonas aeruginosa incubated for 18 hrs in presence of NH4Cl by broth microdilution method; format: functional, organism-based
[10] = test system: Pseudomonas aeruginosa; test: Antibacterial activity against Pseudomonas aeruginosa incubated for 18 hrs in presence of MgCl2 by broth microdilution method; format: functional, organism-based
[11] = test system: Staphylococcus aureus; test: Antibacterial activity against Staphylococcus aureus incubated for 18 hrs in presence of NaCl by broth microdilution method; format: functional, organism-based
[12] = test system: Staphylococcus aureus; test: Antibacterial activity against Staphylococcus aureus incubated for 18 hrs in presence of CaCl2 by broth microdilution method; format: functional, organism-based
[13] = test system: Cell membrane; test: Induction of outer membrane permeabilization in Escherichia coli at 4 times MIC measured immediately by NPN-dye based assay; format: cell membranes
[14] = test system: Cell membrane; test: Induction of inner membrane permeabilization in Escherichia coli ML-35 […] measured every 5 mins for 120 mins by ONPG dye based assay; format: cell membranes
[15] = test system: Cell membrane; test: Induction of inner membrane permeabilization in Escherichia coli ML-35 at 1/2 times MIC measured every 5 mins for 120 mins by ONPG dye based assay; format: cell membranes
[16] = test system: Pseudomonas aeruginosa; test: Induction of morphological change in Pseudomonas aeruginosa assessed as bacterial swelling at 2 times MIC incubated for 30 mins by SEM analysis; format: functional, organism-based
[17] = test system: Pseudomonas aeruginosa; test: Induction of morphological change in Pseudomonas aeruginosa assessed as bacterial deformation at 2 times MIC incubated for 30 mins by SEM analysis; format: functional, organism-based
[18] = test system: Pseudomonas aeruginosa; test: Drug resistance against Pseudomonas aeruginosa assessed as fold increase in MIC after 40 consecutive days of passages by sequential passaging method; format: functional; settings: time 18 hrs
[19] = test system: Staphylococcus aureus; test: Additive antibacterial activity against methicillin resistant Staphylococcus aureus 75 assessed as fractional inhibitory concentration index incubated for 18 hrs in presence of ciprofloxacin by checkerboard assay; format: functional
[20] = test system: Pseudomonas aeruginosa; test: Antibacterial activity against Pseudomonas aeruginosa assessed as fractional inhibitory concentration index incubated for 18 hrs in presence of cefotaxime by checkerboard assay; format: functional
[21] = test system: Staphylococcus aureus; test: Synergistic antibacterial activity against methicillin resistant Staphylococcus aureus 75 assessed as fractional inhibitory concentration index incubated for 18 hrs in presence of cefotaxime by checkerboard assay; format: functional
[22] = test system: Klebsiella pneumoniae; test: Synergistic antibacterial activity against Klebsiella pneumoniae assessed as fractional inhibitory concentration index incubated for 18 hrs in presence of rifampin by checkerboard assay; format: functional
[23] = test system: Pseudomonas aeruginosa; test: Additive antibacterial activity against Pseudomonas aeruginosa assessed as fractional inhibitory concentration index incubated for 18 hrs in presence of rifampin by checkerboard assay; format: functional
[24] = test system: Staphylococcus aureus; test: Synergistic antibacterial activity against Staphylococcus aureus 794 assessed as fractional inhibitory concentration index incubated for 18 hrs in presence of rifampin by checkerboard assay; format: functional
[25] = test system: Escherichia coli; test: Additive antibacterial activity against Escherichia coli assessed as fractional inhibitory concentration index incubated for 18 hrs in presence of kanamycin by checkerboard assay; format: functional
[26] = test system: Staphylococcus aureus; test: Synergistic antibacterial activity against methicillin resistant Staphylococcus aureus assessed as fractional inhibitory concentration index incubated for 18 hrs in presence of kanamycin by checkerboard assay; format: functional
[27] = test system: Staphylococcus aureus; test: Synergistic antibacterial activity against methicillin resistant Staphylococcus aureus 113 assessed as fractional inhibitory concentration index incubated for 18 hrs in presence of kanamycin by checkerboard assay; format: functional
[28] = test system: Staphylococcus aureus; test: Synergistic antibacterial activity against methicillin resistant Staphylococcus aureus assessed as fractional inhibitory concentration index incubated for 18 hrs in presence of streptomycin by checkerboard assay; format: functional
[29] = test system: Staphylococcus aureus; test: Additive antibacterial activity against methicillin resistant Staphylococcus aureus 75 assessed as fractional inhibitory concentration index incubated for 18 hrs in presence of gentamycin by checkerboard assay; format: functional
[30] = test system: Staphylococcus aureus; test: Additive antibacterial activity against Staphylococcus aureus 125 assessed as fractional inhibitory concentration index incubated for 18 hrs in presence of gentamycin by checkerboard assay; format: functional
[31] = test system: Staphylococcus aureus; test: Synergistic antibacterial activity against methicillin resistant Staphylococcus aureus 113 assessed as fractional inhibitory concentration index incubated for 18 hrs in presence of bacitracin by checkerboard assay; format: functional
[32] = test system: Staphylococcus aureus; test: Synergistic antibacterial activity against Staphylococcus aureus 794 assessed as fractional inhibitory concentration index incubated for 18 hrs in presence of bacitracin by checkerboard assay; format: functional
[33] = Acute toxicity in ip dosed mouse by karber method; format: organism-based; settings: in vivo, read-out: LD50
[34] = Acute toxicity in mouse assessed as hepatocyte necrosis at 230.5 mg/kg, ip by H and E staining based assay; format: organism-based; settings: hepatocytes
[35] = Acute toxicity in mouse assessed as tissue hemorrhage at 230.5 mg/kg, ip by H and E staining based assay; format: organism-based; settings: in vivo
[36] = test system: Escherichia coli; test: Antibacterial activity against Escherichia coli infected in BALB/c mouse systemic infection model assessed as reduction in spleen bacterial load at 5 mg/kg, ip measured after 24 hrs; format: functional, organism-based
[37] = test system: Staphylococcus aureus; test: Antibacterial activity against Staphylococcus aureus infected in BALB/c mouse systemic infection model assessed as reduction in lung bacterial load at 5 to 10 mg/kg, ip measured after 8 hrs; format: functional, organism-based; settings: dose 5-10 mg/kg
[38] = test system: Staphylococcus aureus; test: Antibacterial activity against Staphylococcus aureus 794 infected in BALB/c mouse skin wound infection model assessed as reduction in TNFalpha level at 1 mg/ml, ip pre-infected with bacteria for 24 hrs followed by compound addition and measured after 13 days post infection; format: functional, organism-based; settings: time 12.0 day
[39] = Toxicity in BALB/c mouse infected with Staphylococcus aureus 794 assessed as hyperkeratosis at 1 mg/ml, ip pre-infected with bacteria for 24 hrs followed by compound addition and measured after 13 days by H and E staining based histopathological analysis; format: organism-based; settings: in vivo, 312 h, time 13 day
[40] = Toxicity in BALB/c mouse infected with Staphylococcus aureus 794 assessed as increase in hair follicles at 1 mg/ml, ip pre-infected with bacteria for 24 hrs followed by compound addition and measured after 13 days by H and E staining based histopathological analysis; format: organism-based; settings: in vivo, 312 h, time 13 day
[41] = test system: Staphylococcus aureus; test: Antibacterial activity against methicillin resistant Staphylococcus aureus 113 incubated for 18 hrs by broth microdilution method; format: functional
[42] = test system: Staphylococcus aureus; test: Antibacterial activity against Staphylococcus aureus incubated for 18 hrs by broth microdilution method; format: functional
[43] = test system: Staphylococcus aureus; test: Antibacterial activity against kanamycin resistant Staphylococcus aureus incubated for 18 hrs by broth microdilution method; format: functional
[44] = test system: Staphylococcus aureus; test: Antibacterial activity against rifampicin resistant Staphylococcus aureus incubated for 18 hrs by broth microdilution method; format: functional

NCCCC[C@@H](NC(=O)[C@H](N)Cc1c[nH]c2ccccc12)C(=O)N[C@H](Cc1c[nH]c2ccccc12)C(=O)N[C@H](CCCCN)C(=O)N[C@H](Cc1c[nH]c2ccccc12)C(=O)N[C@@H](CC(N)=O)C(=O)NCC(=O)N[C@H](Cc1c[nH]c2ccccc12)C(=O)N[C@H](CCCCN)C(=O)N[C@H](Cc1c[nH]c2ccccc12)C(=O)N[C@H](CCCCN)C(=O)N[C@H](Cc1c[nH]c2ccccc12)C(N)=O
MBC [1]: 8 µM (≈ 14.5 µg/mL) | MBC [2]: 8 µM (≈ 14.5 µg/mL) | MBC [3]: 32 µM (≈ 58.2 µg/mL) | Activity [4]: 126.5 nm | Activity [5]: Active | Activity [6]: 100% | half-life [7]: > 48 h | Activity [8]: Active | Activity [9]: Active | Activity [10]: Active | Activity [11]: Active | Activity [12]: Active | Activity [13]: 100% | Activity [14]: Dose-Dependent Effect | Activity [15]: inactive | Activity [16]: Active | Activity [17]: Active | fold change (FC) [18]: 4 | fractional inhibitory concentration index (FICI) [19]: 0.563 | fractional inhibitory concentration index (FICI) [20]: 1.063 | fractional inhibitory concentration index (FICI) [21]: 0.375 | fractional inhibitory concentration index (FICI) [22]: 0.5 | fractional inhibitory concentration index (FICI) [23]: 0.563 | fractional inhibitory concentration index (FICI) [24]: 0.188 | fractional inhibitory concentration index (FICI) [25]: 0.563 | fractional inhibitory concentration index (FICI) [26]: 0.313 | fractional inhibitory concentration index (FICI) [27]: 0.5 | fractional inhibitory concentration index (FICI) [28]: 0.5 | fractional inhibitory concentration index (FICI) [29]: 0.625 | fractional inhibitory concentration index (FICI) [30]: 0.563 | fractional inhibitory concentration index (FICI) [31]: 0.5 | fractional inhibitory concentration index (FICI) [32]: 0.313 | LD50 [33]: 230 mg/kg | Activity [34]: Toxic | Activity [35]: Toxic | Activity [36]: Active | Activity [37]: Active | Activity [38]: Active | Activity [39]: Non-Toxic | Activity [40]: Toxic | MIC [41]: 8 µM (≈ 14.5 µg/mL) | MIC [42]: 4 µM (≈ 7.27 µg/mL) | MIC [43]: 4 µM (≈ 7.27 µg/mL) | MIC [44]: 8 µM (≈ 14.5 µg/mL)
